{"source": "ChEMBL document CHEMBL1201862", "about": "“PubChem BioAssay data set” (2004)", "key": {"[1]": {"target": "T1, Short transient receptor potential channel 4 (Mus musculus, UniProt Q9QUQ5)", "T1 sequence (Q9QUQ5 whole entry)": "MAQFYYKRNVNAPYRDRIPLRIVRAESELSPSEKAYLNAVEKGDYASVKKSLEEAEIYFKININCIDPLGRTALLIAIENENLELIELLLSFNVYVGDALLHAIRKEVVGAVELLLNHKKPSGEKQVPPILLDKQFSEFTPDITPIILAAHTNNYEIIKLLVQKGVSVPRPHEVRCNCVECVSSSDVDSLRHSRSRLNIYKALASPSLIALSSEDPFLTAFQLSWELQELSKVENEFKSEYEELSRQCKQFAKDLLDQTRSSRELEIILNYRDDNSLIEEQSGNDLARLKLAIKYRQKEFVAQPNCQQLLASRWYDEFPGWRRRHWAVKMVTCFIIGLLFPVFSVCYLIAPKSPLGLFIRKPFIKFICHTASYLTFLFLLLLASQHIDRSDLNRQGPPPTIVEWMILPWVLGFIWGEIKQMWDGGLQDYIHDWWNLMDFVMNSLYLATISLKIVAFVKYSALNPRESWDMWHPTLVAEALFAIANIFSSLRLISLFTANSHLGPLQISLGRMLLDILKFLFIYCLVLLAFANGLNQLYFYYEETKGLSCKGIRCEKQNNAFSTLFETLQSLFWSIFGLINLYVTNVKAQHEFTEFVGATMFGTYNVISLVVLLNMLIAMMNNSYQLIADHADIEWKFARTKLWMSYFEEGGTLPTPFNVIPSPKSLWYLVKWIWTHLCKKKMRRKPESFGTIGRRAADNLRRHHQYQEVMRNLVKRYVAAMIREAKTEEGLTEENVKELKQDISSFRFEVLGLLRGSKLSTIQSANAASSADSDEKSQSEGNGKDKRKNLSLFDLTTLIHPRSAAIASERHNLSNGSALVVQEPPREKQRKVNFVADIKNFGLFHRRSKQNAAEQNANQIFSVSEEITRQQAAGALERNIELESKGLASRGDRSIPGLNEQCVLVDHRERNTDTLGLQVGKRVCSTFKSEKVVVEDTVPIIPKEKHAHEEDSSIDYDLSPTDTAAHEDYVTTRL", "assay": "mouse TRPC4 channel inhibitors, dose response, cell-based, HEK293 TRPC4/mu-opioid, Fluo-4 calcium (AID 434942);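 also: potency of inhibitors blocking the TRPC4 calcium response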", "format": "functional"}, "[2]": {"assay": "Luminescence Cell-Based Dose Response HTS to Identify Activators of Luciferase Translation or Activity in H4 […] Cells. [Related pubchem assays: 1829 (Project Summary), 1814 (Primary HTS)]", "format": "functional"}, "[3]": {"tested_on": "H4", "assay": "Luminescence Cell-Based Dose Response HTS to Identify Activators of 5'UTR Stem-Loop Driven Prion Protein mRNA Translation in H4 Neuroglioblastoma Cells. [Related pubchem assays: 1829 (Project Summary), 1814 (Primary HTS)]", "format": "functional", "settings": "Homo sapiens"}, "[4]": {"target": "T2, Protein skinhead-1 (Caenorhabditis elegans, UniProt P34707)", "T2 sequence (P34707 whole entry)": "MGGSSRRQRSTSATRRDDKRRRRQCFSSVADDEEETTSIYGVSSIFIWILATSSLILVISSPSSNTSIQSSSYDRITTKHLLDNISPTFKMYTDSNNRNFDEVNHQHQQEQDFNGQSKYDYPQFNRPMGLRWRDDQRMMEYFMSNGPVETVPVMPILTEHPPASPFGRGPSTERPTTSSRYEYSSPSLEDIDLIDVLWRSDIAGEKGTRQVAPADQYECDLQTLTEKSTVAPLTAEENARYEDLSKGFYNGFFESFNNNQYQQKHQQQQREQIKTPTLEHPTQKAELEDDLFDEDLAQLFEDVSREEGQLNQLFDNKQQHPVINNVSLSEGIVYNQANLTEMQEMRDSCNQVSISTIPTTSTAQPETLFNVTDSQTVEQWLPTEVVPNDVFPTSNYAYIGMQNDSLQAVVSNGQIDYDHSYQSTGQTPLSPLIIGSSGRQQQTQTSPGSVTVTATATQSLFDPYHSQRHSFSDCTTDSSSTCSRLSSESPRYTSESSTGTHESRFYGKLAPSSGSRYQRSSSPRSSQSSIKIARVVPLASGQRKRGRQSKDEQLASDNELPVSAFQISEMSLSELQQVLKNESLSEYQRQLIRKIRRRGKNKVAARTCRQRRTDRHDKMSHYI", "format": "functional"}, "[5]": {"target": "T3, Coagulation factor XII (Homo sapiens, UniProt P00748)", "T3 sequence (P00748 whole entry)": "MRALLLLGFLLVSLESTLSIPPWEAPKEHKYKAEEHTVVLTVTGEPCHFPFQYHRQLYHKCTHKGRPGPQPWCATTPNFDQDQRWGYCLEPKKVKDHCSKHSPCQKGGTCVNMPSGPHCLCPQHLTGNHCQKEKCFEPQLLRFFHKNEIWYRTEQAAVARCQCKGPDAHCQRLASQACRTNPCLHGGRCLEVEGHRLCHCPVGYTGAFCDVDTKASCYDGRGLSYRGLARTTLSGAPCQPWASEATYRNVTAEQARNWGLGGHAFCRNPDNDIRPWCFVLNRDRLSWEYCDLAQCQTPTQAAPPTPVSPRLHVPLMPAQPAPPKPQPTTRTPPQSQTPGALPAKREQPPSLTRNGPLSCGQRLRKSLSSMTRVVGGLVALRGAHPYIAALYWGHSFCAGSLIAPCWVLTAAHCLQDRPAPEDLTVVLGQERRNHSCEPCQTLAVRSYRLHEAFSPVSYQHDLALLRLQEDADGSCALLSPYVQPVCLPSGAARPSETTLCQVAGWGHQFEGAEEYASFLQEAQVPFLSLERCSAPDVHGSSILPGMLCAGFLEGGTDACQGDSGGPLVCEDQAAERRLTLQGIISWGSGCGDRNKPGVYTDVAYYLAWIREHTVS", "format": "functional"}, "[6]": {"target": "Cytochrome P450 3A4 (Homo sapiens, UniProt P08684)", "sequence (P08684 whole entry)": "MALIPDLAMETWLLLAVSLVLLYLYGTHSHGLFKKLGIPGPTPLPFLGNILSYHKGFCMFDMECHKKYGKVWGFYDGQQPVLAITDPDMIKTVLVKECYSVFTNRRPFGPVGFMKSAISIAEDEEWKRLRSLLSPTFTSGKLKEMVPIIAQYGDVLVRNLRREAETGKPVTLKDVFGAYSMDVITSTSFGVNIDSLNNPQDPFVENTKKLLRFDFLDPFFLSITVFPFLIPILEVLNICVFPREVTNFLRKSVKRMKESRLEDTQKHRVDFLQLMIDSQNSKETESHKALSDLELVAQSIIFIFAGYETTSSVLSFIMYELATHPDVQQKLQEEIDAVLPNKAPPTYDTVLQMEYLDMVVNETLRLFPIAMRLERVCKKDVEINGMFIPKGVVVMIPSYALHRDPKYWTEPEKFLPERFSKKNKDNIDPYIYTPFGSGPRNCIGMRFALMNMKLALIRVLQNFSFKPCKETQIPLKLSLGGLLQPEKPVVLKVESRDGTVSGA"}, "[7]": {"target": "Peroxisome proliferator-activated receptor gamma/Nuclear receptor coactivator 2 (Homo sapiens, UniProt P37231)", "sequence (P37231 whole entry)": "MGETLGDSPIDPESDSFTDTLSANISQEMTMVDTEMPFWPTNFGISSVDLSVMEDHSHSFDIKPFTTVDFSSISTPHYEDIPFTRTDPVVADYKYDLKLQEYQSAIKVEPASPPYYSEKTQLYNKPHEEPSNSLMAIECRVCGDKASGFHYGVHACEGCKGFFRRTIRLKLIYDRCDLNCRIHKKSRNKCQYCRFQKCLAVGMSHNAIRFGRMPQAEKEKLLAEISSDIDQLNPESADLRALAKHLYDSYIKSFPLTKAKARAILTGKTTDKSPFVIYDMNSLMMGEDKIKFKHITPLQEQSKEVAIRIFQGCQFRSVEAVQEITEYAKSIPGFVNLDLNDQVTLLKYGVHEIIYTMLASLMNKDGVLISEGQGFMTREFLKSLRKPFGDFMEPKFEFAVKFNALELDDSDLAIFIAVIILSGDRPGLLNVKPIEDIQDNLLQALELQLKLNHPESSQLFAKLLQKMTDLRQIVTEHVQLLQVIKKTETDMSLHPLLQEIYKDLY", "sequence (Q15596 whole entry, further chain)": "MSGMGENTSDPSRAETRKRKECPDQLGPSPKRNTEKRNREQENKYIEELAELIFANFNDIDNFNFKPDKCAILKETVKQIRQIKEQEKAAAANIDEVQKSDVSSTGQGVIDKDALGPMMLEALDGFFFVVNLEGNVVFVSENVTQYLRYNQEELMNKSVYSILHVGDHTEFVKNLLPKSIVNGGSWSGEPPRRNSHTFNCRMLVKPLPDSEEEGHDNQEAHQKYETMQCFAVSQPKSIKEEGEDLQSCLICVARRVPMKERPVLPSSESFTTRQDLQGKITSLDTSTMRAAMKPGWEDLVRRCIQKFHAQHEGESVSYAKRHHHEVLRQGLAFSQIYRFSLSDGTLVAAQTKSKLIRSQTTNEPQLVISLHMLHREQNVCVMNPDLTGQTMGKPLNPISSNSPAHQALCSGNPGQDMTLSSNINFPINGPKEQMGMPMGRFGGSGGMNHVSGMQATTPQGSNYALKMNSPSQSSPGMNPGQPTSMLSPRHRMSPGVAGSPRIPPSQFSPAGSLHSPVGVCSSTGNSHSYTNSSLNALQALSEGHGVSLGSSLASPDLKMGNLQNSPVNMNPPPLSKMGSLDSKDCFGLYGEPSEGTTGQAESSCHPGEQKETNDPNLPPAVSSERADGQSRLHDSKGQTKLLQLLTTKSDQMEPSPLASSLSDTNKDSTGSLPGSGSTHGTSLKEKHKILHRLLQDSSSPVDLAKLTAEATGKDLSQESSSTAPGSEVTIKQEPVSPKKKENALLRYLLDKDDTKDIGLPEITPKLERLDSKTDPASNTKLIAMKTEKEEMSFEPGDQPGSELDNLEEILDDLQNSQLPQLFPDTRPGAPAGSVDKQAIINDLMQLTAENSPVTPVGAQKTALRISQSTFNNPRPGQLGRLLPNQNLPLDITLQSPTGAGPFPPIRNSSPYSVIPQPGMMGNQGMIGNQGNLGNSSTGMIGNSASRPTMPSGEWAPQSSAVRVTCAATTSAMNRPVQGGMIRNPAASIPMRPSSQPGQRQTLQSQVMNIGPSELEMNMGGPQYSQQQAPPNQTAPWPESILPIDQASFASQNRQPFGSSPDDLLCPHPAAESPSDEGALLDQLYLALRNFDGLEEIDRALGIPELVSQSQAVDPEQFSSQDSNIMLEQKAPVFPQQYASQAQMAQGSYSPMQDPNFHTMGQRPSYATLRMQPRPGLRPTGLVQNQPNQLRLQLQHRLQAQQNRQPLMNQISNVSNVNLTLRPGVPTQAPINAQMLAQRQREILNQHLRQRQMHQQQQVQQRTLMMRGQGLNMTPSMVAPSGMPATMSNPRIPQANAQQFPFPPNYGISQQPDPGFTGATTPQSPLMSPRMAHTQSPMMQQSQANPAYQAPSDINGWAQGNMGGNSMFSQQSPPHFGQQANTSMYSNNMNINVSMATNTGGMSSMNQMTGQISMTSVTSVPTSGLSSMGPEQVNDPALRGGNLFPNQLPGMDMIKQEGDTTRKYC", "format": "functional"}, "[8]": {"target": "Peroxisome proliferator-activated receptor gamma/Nuclear receptor coactivator 1 (Homo sapiens, UniProt P37231)", "sequence (P37231 whole entry)": "as the sequence (P37231 whole entry) above", "sequence (Q15788 whole entry, further chain)": "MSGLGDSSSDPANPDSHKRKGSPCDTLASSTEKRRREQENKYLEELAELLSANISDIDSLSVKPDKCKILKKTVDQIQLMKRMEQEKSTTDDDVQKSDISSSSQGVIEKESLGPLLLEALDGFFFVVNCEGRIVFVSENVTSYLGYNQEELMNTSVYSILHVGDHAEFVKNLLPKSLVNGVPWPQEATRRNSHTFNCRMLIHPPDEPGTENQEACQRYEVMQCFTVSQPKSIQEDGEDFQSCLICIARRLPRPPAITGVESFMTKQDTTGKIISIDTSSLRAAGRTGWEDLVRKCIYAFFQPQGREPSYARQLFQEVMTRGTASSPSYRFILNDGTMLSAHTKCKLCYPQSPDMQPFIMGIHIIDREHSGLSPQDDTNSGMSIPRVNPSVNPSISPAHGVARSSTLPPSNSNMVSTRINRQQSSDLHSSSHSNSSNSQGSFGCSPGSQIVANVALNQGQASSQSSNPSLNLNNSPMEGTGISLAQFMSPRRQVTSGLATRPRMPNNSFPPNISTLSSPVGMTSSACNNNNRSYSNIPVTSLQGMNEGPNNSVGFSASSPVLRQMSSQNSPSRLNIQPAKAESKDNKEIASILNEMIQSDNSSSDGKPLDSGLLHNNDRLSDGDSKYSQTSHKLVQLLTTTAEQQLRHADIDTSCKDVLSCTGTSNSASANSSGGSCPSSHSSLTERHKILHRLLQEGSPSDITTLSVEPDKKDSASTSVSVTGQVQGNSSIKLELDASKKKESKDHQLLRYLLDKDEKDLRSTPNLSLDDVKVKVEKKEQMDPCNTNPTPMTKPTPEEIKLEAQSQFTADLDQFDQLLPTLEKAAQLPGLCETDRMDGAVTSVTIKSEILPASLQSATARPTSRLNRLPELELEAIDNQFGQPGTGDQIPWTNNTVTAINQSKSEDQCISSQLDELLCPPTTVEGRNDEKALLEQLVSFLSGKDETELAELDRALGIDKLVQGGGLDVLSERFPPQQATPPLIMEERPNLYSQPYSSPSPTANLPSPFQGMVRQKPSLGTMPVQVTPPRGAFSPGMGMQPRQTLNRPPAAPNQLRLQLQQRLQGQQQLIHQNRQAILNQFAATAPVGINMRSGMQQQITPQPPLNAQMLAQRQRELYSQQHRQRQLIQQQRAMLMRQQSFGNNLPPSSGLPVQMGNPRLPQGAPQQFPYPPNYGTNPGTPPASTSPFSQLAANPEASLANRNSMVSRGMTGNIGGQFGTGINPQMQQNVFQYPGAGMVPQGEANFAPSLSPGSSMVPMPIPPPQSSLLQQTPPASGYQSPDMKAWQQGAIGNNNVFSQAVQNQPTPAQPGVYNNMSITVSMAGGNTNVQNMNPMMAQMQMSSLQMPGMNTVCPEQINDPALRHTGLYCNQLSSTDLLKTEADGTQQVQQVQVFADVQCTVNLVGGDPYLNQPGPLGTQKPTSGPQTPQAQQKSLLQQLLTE", "format": "functional"}, "[9]": {"target": "Peroxisome proliferator-activated receptor gamma/Nuclear receptor coactivator 3 (Homo sapiens, UniProt P37231)", "format": "functional"}, "[10]": {"tested_on": "BJ", "assay": "cytotoxicity toward BJ-TERT fibroblasts, dose response, cell-based, RAS-independent, luminescence (AID 1933)", "format": "functional", "settings": "Homo sapiens"}, "[11]": {"tested_on": "BJ", "assay": "cells", "format": "functional, cell-based", "settings": "Homo sapiens"}, "[12]": {"tested_on": "BJ", "assay": "cytotoxicity toward BJ-TERT-LT-ST fibroblasts, dose response, cell-based, RAS-independent, luminescence (AID 1935);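 also: BJ fibroblasts immortalized with TERT plus LT and ST oncogenes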", "format": "functional", "settings": "Homo sapiens"}, "[13]": {"assay": "cytotoxicity toward DRD oncogenic fibroblasts, dose response, cell-based, non-viral oncogenic, luminescence (AID 1934)", "format": "functional", "settings": "Homo sapiens"}, "[14]": {"assay": "ZM109 Env clade C HIV-1 fusion inhibitors, dose response, HeLa effector, CEM target cells, luciferase, cherry-pick (AID 652058)", "format": "functional, cell-based"}}, "note": "Calls of active or inactive are those of the source.", "data": [{"compound": "O=C(COC(=O)C1CC1)Nc1nc(-c2ccc(F)c(F)c2)cs1", "values": [{"measurement": "EC50", "setting": "[1]", "result": "2990 nM (active)"}]}, {"compound": "Fc1cccc(CSc2ccc(-c3ccco3)nn2)c1", "values": [{"measurement": "EC50", "setting": "[2]", "result": "49.2 µM (active)"}, {"measurement": "EC50", "setting": "[3]", "result": "8.43 µM (active)"}, {"measurement": "IC50", "setting": "[4]", "result": "> 100 µM (inactive)"}]}, {"compound": "CCOCCCn1cnc2c(c1=O)c1nc3ccccc3nc1n2-c1ccccc1", "values": [{"measurement": "IC50", "setting": "[5]", "result": "> 50 µM (inactive)"}, {"measurement": "AC50", "setting": "[6]", "result": "20 µM (inconclusive)"}]}, {"compound": "COC(=O)c1cccc(NC(=O)CSc2nnc[nH]2)c1", "values": [{"measurement": "IC50", "setting": "[5]", "result": "> 50 µM (inactive)"}]}, {"compound": "COc1ccc(CN(Cc2ccc(OC)cc2)C(=O)c2cccs2)cc1", "values": [{"measurement": "IC50", "setting": "[5]", "result": "> 50 µM (inactive)"}]}, {"compound": "Cc1nc2ccccc2n1CCOc1ccc(F)cc1", "values": [{"measurement": "EC50", "setting": "[1]", "result": "376 nM (active)"}]}, {"compound": "CCc1nnc(NC(=O)CSc2ncnc3c2oc2ccccc23)s1", "values": [{"measurement": "EC50", "setting": "[7]", "result": "18.3 µM (not active)"}, {"measurement": "EC50", "setting": "[8]", "result": "22.6 µM (not active)"}, {"measurement": "EC50", "setting": "[9]", "result": "23.5 µM (not active)"}]}, {"compound": "Nc1nc(C2CCCN2S(=O)(=O)c2ccc(Cl)cc2)cs1", "note": "(stereo not given)", "values": [{"measurement": "EC50", "setting": "[7]", "result": "> 79.4 µM (not active)"}, {"measurement": "EC50", "setting": "[8]", "result": "> 79.4 µM (not active)"}, {"measurement": "EC50", "setting": "[9]", "result": "> 79.4 µM (not active)"}]}, {"compound": "O=C(c1ccccc1)c1cc([N+](=O)[O-])ccc1N1CCCC1", "values": [{"measurement": "EC50", "setting": "[10]", "result": "> 150 µM (not active)"}, {"measurement": "EC50", "setting": "[11]", "result": "> 150 µM (not active)"}, {"measurement": "EC50", "setting": "[12]", "result": "> 150 µM (not active)"}, {"measurement": "EC50", "setting": "[13]", "result": "> 150 µM (not active)"}]}, {"compound": "CCCC(=O)NNC(=O)c1ccoc1C", "values": [{"measurement": "IC50", "setting": "[5]", "result": "> 50 µM (inactive)"}]}, {"compound": "C[C@H]1CN([C@@H](C)CO)C(=O)c2cc(NS(=O)(=O)c3ccc(F)cc3)ccc2O[C@H]1CN(C)S(=O)(=O)c1ccc(F)cc1", "values": [{"measurement": "AC50", "setting": "[14]", "result": "42.4 µM (active)"}]}, {"compound": "COc1cccc2cc(C(N)=O)/c(=N\\NC(=O)c3ccccc3)oc12", "values": [{"measurement": "EC50", "setting": "[1]", "result": "188 nM (active)"}]}, {"compound": "CCOC(=O)c1s/c(=N\\C(=O)c2ccc(OC(C)C)cc2)n(C)c1C", "values": [{"measurement": "EC50", "setting": "[7]", "result": "16.2 µM (not active)"}, {"measurement": "EC50", "setting": "[8]", "result": "18.3 µM (not active)"}, {"measurement": "EC50", "setting": "[9]", "result": "20.3 µM (not active)"}]}]}
